Experimental data taken from patent US9006191B2, “Silencing of polo-like kinase expression using interfering RNA” (Protiva Biotherapeutics, Inc., priority 2007, dated 2015).
Entries after “also recorded” stand apart in the source; their conditions may differ.

Columns and labels:
[1] = tested on: Neuro2A cells; assay: Neuro2A cell viability assay (CellTiter-Blue); assay type: cell-based; settings: mouse Neuro2A cells, SNALP-formulated siRNA, viability at 72 h relative to PBS
Protocol: Various PLK-1 siRNAs were formulated as SNALP (“2:40” SNALP formulation: 2% PEG-cDMA; 40% DLinDMA; 10% DSPC; and 48% cholesterol) and evaluated for their inhibitory effects on cell growth in vitro. HT29 (human colon adenocarcinoma) or Neuro2A (mouse neuroblastoma) cells were treated with various PLK-1 SNALP at a range of siRNA concentrations and their effect on cell viability was evaluated. Viability of cell cultures is expressed as % viability relative to PBS treated controls.
Additional PLK-1 siRNA molecules were formulated as SNALP (“2:40” SNALP formulation: 2% PEG-cDMA; 40% DLinDMA; 10% DSPC; and 48% cholesterol) and evaluated for their inhibitory effects on cell growth in vitro. HT29 or Neuro2A cells were plated in triplicate at 5000 cells/well and 2500 cells/well, respectively. PLK-1 SNALP dosages were as follows: 25 nM; 5 nM; and 1 nM. Cell viability analysis was performed at 72 hours following transfection. SNALP containing a non-targeting (GFP) siRNA were used as a negative control.
Additional PLK-1 siRNA molecules were formulated as SNALP (“2:40” SNALP formulation: 2% PEG-cDMA; 40% DLinDMA; 10% DSPC; and 48% cholesterol) and evaluated for their inhibitory effects on cell growth in vitro. HT29 or Neuro2A cells were plated in triplicate at 5000 cells/well and 2500 cells/well, respectively. PLK-1 SNALP dosages were as follows: 30 nM; 10 nM; and 3.3 nM. Cell viability analysis was performed at 72 hours following transfection. SNALP containing a non-targeting (GFP) siRNA were used as a negative control.

[2] = tested on: LS174T cells; assay: LS174T cell viability assay; assay type: cell-based, human; settings: SNALP-formulated siRNA, 72 h
Protocol: SNALP containing PLK1424 or PLK773 siRNA (“2:40” SNALP formulation: 2% PEG-cDMA; 40% DLinDMA; 10% DSPC; and 48% cholesterol) were tested for their effects on cell viability and silencing of PLK-1 mRNA in HT29 and LS174T human colon cancer cells. Cells were plated in triplicate at ˜10,000 cells/well. SNALP dosages were as follows: 30 nM; 10 nM; 3.3 nM; 1.1 nM; 0.37 nM; and 0.12 nM. Branched DNA mRNA assays were performed 24 hours following transfection. Cell viability assays were performed at 72 hours following transfection. SNALP containing a non-targeting (GFP) siRNA were used as a negative control. […] The effects on cell viability correlated with silencing of the target PLK-1 mRNA.

[3] = tested on: Hep3B liver tumors; assay: Intrahepatic Hep3B tumor model (survival, body weight, tumor burden); assay type: in vivo
Protocol: SNALP containing PLK-1 siRNA (“1:57” SNALP formulation: 1.4% PEG-cDMA; 57.1% DLinDMA; 7.1% DPPC; and 34.3% cholesterol) were tested for their effects on the survival of […] mice bearing Hep3B liver tumors.
Intrahepatic tumor models. Liver tumors were established in mice by direct intrahepatic injection of Hep3B or Neuro2a tumor cells (45). Female scid/beige mice (Charles River Laboratories) and male A/J mice (Jackson Laboratories) were used as hosts for the Hep3B and Neuro2a tumors, respectively. Animals received Anafen by SC injection immediately prior to surgery. Individual mice were anaesthetized by isoflourane gas inhalation and eye lube applied to prevent excessive eye drying. While maintained under gas anaesthesia, a single 1.5 cm incision across the midline was made below the sternum and the left lateral hepatic lobe exteriorized. 1×10^6 Hep3B cells or 1×10^5 Neuro2a cells suspended in 25 μL PBS were injected slowly into the lobe at a shallow angle using a Hamilton syringe and 30G needle. A swab was then applied to the puncture wound to stop any bleeding prior to suturing. Mice were allowed to recover from anaesthesia in a sterile cage and monitored closely for 2-4 h before being returned to conventional housing.
Eight to 11 days after tumor implantation, mice were randomized into treatment groups. siRNA SNALP formulations or PBS vehicle control were administered by standard intravenous injection via the lateral tail vein, calculated on a mg siRNA/kg basis according to individual animal weights (10 mL/kg injection volume). Body weights were then monitored throughout the duration of the study as an indicator of developing tumor burden and treatment tolerability. For efficacy studies, defined humane endpoints were determined as a surrogate for survival. Assessments were made by qualified veterinary technicians based on a combination of clinical signs, weight loss, and abdominal distension to define the day of euthanization due to tumor burden.
Measurement of human PLK-1 and GAPDH mRNA in tumor tissues. Tumors were harvested directly into RNALater and stored at 4° C. until processing. 100 mg tumor tissue was homogenized in Tissue and Lysis Solution (EpiCentre Biotechnologies) containing […] proteinase K (EpiCentre) in a Fastprep tissue homogenizer followed by incubation in a 65° C. waterbath for 15 min and centrifuged to clarify lysates. mRNA analysis in FIG. 33B was performed on purified RNA isolated according the 5′-RACE-PCR protocol. Human PLK-1 and GAPDH mRNA were measured in tumor lystes by the QuantiGene bDNA assay (Panomics) as per the manufacturer's instructions (Quantigene 1.0 Manual). […] Data were expressed as mean PLK-1:GAPDH ratio+/−SD of individual animals. Tumor burden was assessed by homogenizing the complete liver from tumor bearing mice and measuring the total hGAPDH signal (RLU's) within the liver. Values were expressed as hGAPDH RLU/mg total liver.

[4] = Hep3B-nu/nu mouse model, 2 mg/kg twice weekly d11-d28

Substance	cell viability / inhibition of cell growth [1]	cell viability / inhibition of cell growth [2]	mice with visible tumors at autopsy ([3]; day 22, 1 day after fifth 2 mg/kg dose)	survival advantage (Kaplan-Meier, Log-rank) ([3]; scid/beige mice, 6 × 2 mg/kg IV twice weekly, d 10 to d 28)	median survival, Study (A) [3, 4]	median survival, study (B) [3, 4]
PLK773: siRNA to human PLK-1, SEQ ID NO:3/4 (UU overhang form 218/219) (chain 1 AGACCUACCUCCGGAUCAA; chain 2 UUGAUCCGGAGGUAGGUCU; RNA, backbone not given here)	most potent human/mouse cross-reactive siRNA molecules	inhibiting cell growth	–	–	–	–
PLK1424-2/A: 2′OMe-modified PLK1424 duplex, SEQ ID NO:214/215 (same SEQ IDs as PLK1424 1/3 of Table 11) (chain 1 AGANCACCCNCCUNAAANAUU; chain 2 UAUUUAANGAGGGUGANCUUU; siRNA; 2'-O-methyl modifications at selected positions, key for n not given here)	–	–	2 of 6	significant survival advantage over control treatment	–	–
PLK1424: siRNA to human PLK-1, SEQ ID NO:1/2 (UU overhang form 211/212) (chain 1 AGAUCACCCUCCUUAAAUA; chain 2 UAUUUAAGGAGGGUGAUCU; further chemistry not given here)	inactivity in the mouse cell line	inhibiting cell growth; also recorded: potent activity	–	–	45 days	42 days
